Source: ChEMBL document CHEMBL3621197, “Design, synthesis, and preliminary bioactivity studies of substituted purine hydroxamic acid derivatives as novel histone deacetylase (HDAC) inhibitors” (Medchemcomm, 2014)

Experiments:
[1] = biological target: T1, Histone deacetylase (HDAC1 and HDAC2) (Homo sapiens, UniProt Q13547+Q92769); assay: Inhibition of HDAC1/HDAC2 isolated from human HeLa cells incubated for 30 mins by Color de Lys assay; assay type: cell-based
[2] = system: MDA-MB-231; assay: cells; assay type: functional, cell-based; details: Homo sapiens, MDA-MB-231, 48 h
Description: Cytotoxicity against human MDA-MB-231 cells assessed as inhibition of cell proliferation after 48 hrs by MTT assay

[3] = system: MCF7; assay: cells; assay type: functional, cell-based; details: Homo sapiens, MCF7, 48 h
Description: Cytotoxicity against human MCF7 cells assessed as inhibition of cell proliferation after 48 hrs by MTT assay

[4] = cells; assay type: functional, cell-based; details: Homo sapiens, KG-1, 48 h
Description: Cytotoxicity against human KG1 cells assessed as inhibition of cell proliferation after 48 hrs by MTT assay

[5] = biological target: T1, Histone deacetylase (HDAC1 and HDAC2); details: HeLa, at 5 µM
Description: Inhibition of HDAC1/HDAC2 isolated from human HeLa cells at 5 umol/L incubated for 30 mins by Color de Lys assay

[6] = system: PC-3; assay: cells; assay type: functional, cell-based; details: Homo sapiens, PC-3, 48 h
Description: Cytotoxicity against human PC3 cells assessed as inhibition of cell proliferation after 48 hrs by MTT assay

[7] = system: A549; assay: cells; assay type: functional, cell-based; details: Homo sapiens, A549, 48 h
Description: Cytotoxicity against human A549 cells assessed as inhibition of cell proliferation after 48 hrs by MTT assay

[8] = system: U-937; assay: cells; assay type: functional, cell-based; details: Homo sapiens, U-937, 48 h
Description: Cytotoxicity against human U937 cells assessed as inhibition of cell proliferation after 48 hrs by MTT assay

[9] = system: HeLa; assay: cells; assay type: functional, cell-based; details: Homo sapiens, 48 h
Description: Cytotoxicity against human HeLa cells assessed as inhibition of cell proliferation after 48 hrs by MTT assay

[10] = cells; assay type: functional, cell-based, ES2; details: Homo sapiens, ES-2, 48 h
Description: Cytotoxicity against human ES2 cells assessed as inhibition of cell proliferation after 48 hrs by MTT assay

[11] = biological target: Histone deacetylase 1 (Homo sapiens, UniProt Q13547); assay: Inhibition of recombinant full length human HDAC1 (1 to 482 amino acids) expressed in Baculovirus infected insect Sf9 cells incubated for 30 mins measured by fluorescence assay
Sequence of Histone deacetylase 1 (Q13547 whole entry, the tested form may be a part): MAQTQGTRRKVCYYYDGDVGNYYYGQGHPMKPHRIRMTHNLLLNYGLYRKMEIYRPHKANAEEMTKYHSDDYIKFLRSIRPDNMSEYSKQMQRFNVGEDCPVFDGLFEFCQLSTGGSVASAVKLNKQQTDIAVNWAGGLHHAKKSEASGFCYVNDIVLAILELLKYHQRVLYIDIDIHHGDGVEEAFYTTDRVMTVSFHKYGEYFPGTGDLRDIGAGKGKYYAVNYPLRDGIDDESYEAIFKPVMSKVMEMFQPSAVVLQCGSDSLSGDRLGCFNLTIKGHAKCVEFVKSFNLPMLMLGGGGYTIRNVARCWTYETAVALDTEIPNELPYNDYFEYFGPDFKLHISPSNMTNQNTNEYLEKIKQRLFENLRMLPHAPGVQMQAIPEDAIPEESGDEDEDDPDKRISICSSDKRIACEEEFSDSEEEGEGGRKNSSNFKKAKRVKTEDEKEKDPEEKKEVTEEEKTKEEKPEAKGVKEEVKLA

[12] = biological target: T2, Protein deacetylase HDAC6 (Homo sapiens, UniProt Q9UBN7); assay: Inhibition of recombinant full length human HDAC6 expressed in Baculovirus infected insect Sf9 cells incubated for 30 mins measured by fluorescence assay
T2 sequence (Q9UBN7 whole entry): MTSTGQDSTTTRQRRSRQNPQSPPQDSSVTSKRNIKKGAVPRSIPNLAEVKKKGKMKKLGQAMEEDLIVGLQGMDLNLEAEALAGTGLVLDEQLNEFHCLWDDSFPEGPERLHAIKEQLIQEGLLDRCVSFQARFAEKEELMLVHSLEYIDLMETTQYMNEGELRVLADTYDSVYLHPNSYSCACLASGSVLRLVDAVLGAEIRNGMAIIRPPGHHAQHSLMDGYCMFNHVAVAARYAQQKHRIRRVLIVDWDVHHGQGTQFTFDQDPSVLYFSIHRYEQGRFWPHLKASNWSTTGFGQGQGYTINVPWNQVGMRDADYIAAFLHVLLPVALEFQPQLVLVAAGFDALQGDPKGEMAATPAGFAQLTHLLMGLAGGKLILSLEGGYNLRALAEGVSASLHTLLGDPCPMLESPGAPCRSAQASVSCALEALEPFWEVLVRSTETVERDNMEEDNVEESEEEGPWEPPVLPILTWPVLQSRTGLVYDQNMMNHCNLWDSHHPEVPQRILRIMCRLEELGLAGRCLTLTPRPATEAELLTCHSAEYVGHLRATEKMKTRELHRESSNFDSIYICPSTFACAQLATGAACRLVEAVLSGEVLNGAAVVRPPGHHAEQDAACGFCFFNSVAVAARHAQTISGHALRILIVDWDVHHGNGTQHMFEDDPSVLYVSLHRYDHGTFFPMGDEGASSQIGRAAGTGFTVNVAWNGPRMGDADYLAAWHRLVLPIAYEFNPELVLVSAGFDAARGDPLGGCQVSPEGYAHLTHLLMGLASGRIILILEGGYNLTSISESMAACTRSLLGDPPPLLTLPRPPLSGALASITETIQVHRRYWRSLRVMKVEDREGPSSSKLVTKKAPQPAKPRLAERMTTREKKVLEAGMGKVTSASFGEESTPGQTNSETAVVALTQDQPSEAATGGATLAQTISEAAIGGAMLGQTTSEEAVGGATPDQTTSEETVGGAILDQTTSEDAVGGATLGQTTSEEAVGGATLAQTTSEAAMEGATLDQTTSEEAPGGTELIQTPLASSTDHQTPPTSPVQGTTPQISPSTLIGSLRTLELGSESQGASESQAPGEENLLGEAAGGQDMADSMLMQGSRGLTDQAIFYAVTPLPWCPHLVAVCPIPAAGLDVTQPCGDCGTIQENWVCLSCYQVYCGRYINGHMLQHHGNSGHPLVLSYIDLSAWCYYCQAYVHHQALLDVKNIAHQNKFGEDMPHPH

[13] = biological target: T3, Histone deacetylase 8 (Homo sapiens, UniProt Q9BY41); assay: Inhibition of recombinant full length human HDAC8 expressed in Baculovirus infected insect Sf9 cells preincubated for 30 mins followed by substrate addition measured after 15 to 45 mins by luminescence assay
T3 sequence (Q9BY41 whole entry): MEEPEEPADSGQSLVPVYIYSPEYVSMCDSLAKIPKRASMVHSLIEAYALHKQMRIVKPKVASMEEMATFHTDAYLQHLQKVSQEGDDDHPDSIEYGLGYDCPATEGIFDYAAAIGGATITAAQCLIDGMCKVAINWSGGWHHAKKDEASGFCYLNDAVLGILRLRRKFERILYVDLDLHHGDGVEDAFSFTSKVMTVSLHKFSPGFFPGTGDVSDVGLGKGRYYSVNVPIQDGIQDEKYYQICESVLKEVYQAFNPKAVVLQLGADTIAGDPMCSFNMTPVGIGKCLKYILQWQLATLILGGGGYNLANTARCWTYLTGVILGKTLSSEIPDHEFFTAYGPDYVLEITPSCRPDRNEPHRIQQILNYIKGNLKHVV

T1 sequence (Q13547 whole entry, looked up): as the sequence (Q13547 whole entry, the tested form may be a part) above
T1 sequence (Q92769 whole entry, looked up): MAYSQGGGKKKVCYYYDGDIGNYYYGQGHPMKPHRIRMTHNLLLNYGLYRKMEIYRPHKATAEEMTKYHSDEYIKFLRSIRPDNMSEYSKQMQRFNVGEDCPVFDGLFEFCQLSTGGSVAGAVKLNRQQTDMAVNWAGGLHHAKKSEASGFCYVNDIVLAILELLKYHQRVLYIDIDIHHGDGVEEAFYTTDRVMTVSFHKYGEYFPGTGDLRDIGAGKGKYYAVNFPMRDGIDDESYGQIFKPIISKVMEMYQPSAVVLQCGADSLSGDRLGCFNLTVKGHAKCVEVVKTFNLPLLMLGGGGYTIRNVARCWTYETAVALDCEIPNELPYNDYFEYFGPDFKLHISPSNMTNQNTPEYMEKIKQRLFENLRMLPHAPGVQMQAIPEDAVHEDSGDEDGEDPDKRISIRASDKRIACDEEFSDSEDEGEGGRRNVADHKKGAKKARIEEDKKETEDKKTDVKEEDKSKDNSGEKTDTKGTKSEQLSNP

| Compound | IC50 [1] | IC50 [2] | IC50 [3] | IC50 [4] | inhibition [5] | further results |
| --- | --- | --- | --- | --- | --- | --- |
| O=C(CCCCNC(=O)Cn1cnc2c(Nc3ccccc3)ncnc21)NO | 2.51 µM | > 50 µM | > 50 µM | > 50 µM | 59% |  |
| O=C(CCCCCCNC(=O)Cn1cnc2c(Nc3ccccc3)ncnc21)NO | 2.94 µM | 8.91 µM | > 50 µM | > 50 µM | 49% |  |
| O=C(CNC(=O)Cn1cnc2c(NCc3ccccc3)ncnc21)NO |  |  |  |  | 3% |  |
| O=C(CCCCCCNC(=O)Cn1cnc2c(Nc3ccccc3)nc(Nc3ccccc3)nc21)NO | 0.51 µM | 1.55 µM | 9.04 µM | 2.88 µM | 95% | IC50 [6]: 4.26 µM; IC50 [7]: 10.1 µM; IC50 [8]: 3.91 µM; IC50 [9]: 8.76 µM; IC50 [10]: 8.95 µM; IC50 [11]: 0.063 µM; IC50 [12]: 0.0018 µM; IC50 [13]: 0.32 µM |
| Nc1nc(N2CCOCC2)c2ncn(CC(=O)Nc3ccc(CC(=O)NO)cc3)c2n1 |  |  |  |  | 0% |  |
| O=C(CCCCNC(=O)Cn1cnc2c(Nc3ccccc3)nc(Nc3ccccc3)nc21)NO | 0.59 µM | 11.1 µM | > 50 µM | 34.7 µM | 87% |  |
| O=C(CCCCCNC(=O)Cn1cnc2c(Nc3ccccc3)nc(Nc3ccccc3)nc21)NO | 0.3 µM | 1.61 µM | 9.58 µM | 3.8 µM | 80% | IC50 [6]: 2.14 µM; IC50 [7]: 18 µM; IC50 [8]: 4.07 µM; IC50 [9]: 9.08 µM; IC50 [10]: 13.4 µM; IC50 [11]: 0.028 µM; IC50 [12]: 0.0038 µM; IC50 [13]: 0.2 µM |
| O=C(CCCCCNC(=O)Cn1cnc2c(NCc3ccccc3)ncnc21)NO | 2.05 µM | 34.2 µM | > 50 µM | > 50 µM | 70% |  |
| O=C(CCNC(=O)Cn1cnc2c(NCc3ccccc3)ncnc21)NO |  |  |  |  | 13% |  |
| O=C(CCCCCNC(=O)Cn1cnc2c(N3CCOCC3)nc(Nc3ccccc3)nc21)NO | 0.075 µM | 1.56 µM | 18.6 µM | 5.37 µM | 98% | IC50 [6]: 6.44 µM; IC50 [7]: 46.1 µM; IC50 [8]: 6.5 µM; IC50 [9]: 18.2 µM; IC50 [10]: 28 µM; IC50 [11]: 0.035 µM; IC50 [12]: 0.0026 µM; IC50 [13]: 0.15 µM |
| O=C(CCCNC(=O)Cn1cnc2c(NCc3ccccc3)ncnc21)NO |  |  |  |  | 11% |  |
| CNc1ncnc2c1ncn2CC(=O)NCCCC(=O)NO |  |  |  |  | 6% |  |
| O=C(CCCCCNC(=O)Cn1cnc2c(Nc3ccccc3)ncnc21)NO | 2.09 µM | 22.3 µM | > 50 µM | > 50 µM | 72% |  |
| CNc1ncnc2c1ncn2CC(=O)NCC(=O)NO |  |  |  |  | 3% |  |

Now from value to compound, other results behind:

| IC50 [1] | IC50 [2] | IC50 [3] | IC50 [4] | inhibition [5] | Compound | further results |
| --- | --- | --- | --- | --- | --- | --- |
| 4.53 µM | 41.3 µM | > 50 µM |  | 53% | Nc1nc(N2CCOCC2)c2ncn(CC(=O)NCCCCCC(=O)NO)c2n1 |  |
|  |  |  |  | 3% | O=C(CCNC(=O)Cn1cnc2c(N3CCOCC3)ncnc21)NO |  |
| > 5 µM |  |  |  | 49% | O=C(CCCCCNC(=O)Cn1cnc2c(N3CCOCC3)ncnc21)NO |  |
| > 5 µM |  |  |  | 69% | O=C(CCCNC(=O)Cn1cnc2c(N3CCOCC3)nc(Nc3ccccc3)nc21)NO |  |
|  |  |  |  | -1% | Nc1nc(N2CCOCC2)c2ncn(CC(=O)NCCCC(=O)NO)c2n1 |  |
|  |  |  |  | 10% | CNc1ncnc2c1ncn2CC(=O)NCCC(=O)NO |  |
|  |  |  |  | 15% | O=C(CCCNC(=O)Cn1cnc2c(N3CCOCC3)ncnc21)NO |  |
|  |  |  |  | 25% | O=C(Cc1ccc(NC(=O)Cn2cnc3c(N4CCOCC4)ncnc32)cc1)NO |  |
|  |  |  |  | 20% | Nc1nc(N2CCOCC2)c2ncn(CC(=O)NCCC(=O)NO)c2n1 |  |
| > 5 µM |  |  |  | 56% | O=C(CCNC(=O)Cn1cnc2c(N3CCOCC3)nc(Nc3ccccc3)nc21)NO |  |
